The values below come from US20180008593A1 (Purdue Pharma L.P., priority 2005, published 2018).

Structures are written as SMILES.

Data set [1] concerns oxycodone-pump and vehicle-pump implanted rats. Nature of the data set: Oxycodone tolerance: tail withdrawal dose response in pump-implanted rats, Example 5. It counts as in vivo, rat. On the procedure:
Animals were randomized and acclimated for one week as described in Section 3.1. Vehicle control pumps contained sterile filtered isotonic saline. Alzet 2ML 1 osmotic mini pumps were loaded with oxycodone solution as described in “Alzet Osmotic Minipumps: Technical Information Manual” from DURECT Corp., Cupertino, Calif. The loaded pumps were primed by placing them in sterile isotonic saline at 37° […] for 3-h before implanting them in the rats. The rats were briefly anesthetized with isoflurane USP (Henry Schein, Inc. Melville, N.Y., U.S.A.) for implantation of 2ML 1 osmotic minipumps that deliver at a rate […]. After induction of anesthesia (as noted by the absence of the righting reflex and foot pinch response). Sterile scissors were used to make a 1.5 cm incision that was expanded under the skin with hemostats in a caudal direction to open the subcutaneous space for the pump. A sterile 2ML 1 pump was then inserted under the skin and moved to the dorsum. The rats were returned to their home cages and monitored until they completely recovered from anesthesia. Pump delivery began at 4-h (DU REGT Corp.) allowing the rats 1-h to recover from the anesthesia. Therefore, time zero began 1-h after implantation of the pumps. The rats were monitored daily for signs of distress, drug toxicity, or problems with the surgical site.
If the value was below 50% then the predicted level of tolerance was greater than 10-fold. The infusion dose that elicited approximately a 50% MPE with the challenge was selected as the 10-fold model of tolerance.
After this, the individual groups (8/group) were challenged with increasing doses of oxycodone for construction of a dose-response curve for calculation of the ED80 value. Potency-ratio determinations were made between the oxycodone-pump and vehicle-pump groups.

In a further data set the test system is male Sprague-Dawley rats. Briefly: 51° C. warm-water tail withdrawal test, i.v. oxycodone in opioid naive rats, Example 5.
Data set [2] has as its system patients with severe chronic pain. Nature of the data set: Incidence and duration of diarrhea and discontinuations due to diarrhea, Example 1. Conditions: naloxone 0 mg.
In data set [3] the test system is experimental human pain model, healthy volunteers. Briefly: Pain-related evoked potentials (EEG) after CO2 stimulation of the nasal mucosa, Example 4. The data set is classed as in vivo. Here is the method: This was a single site, single dose, double blind, placebo-controlled, 5-treatment, 5-period, randomized, balanced crossover study in healthy adult male and female subjects. […] Subjects were allocated each of the 5 treatments described in the synopsis according to a random allocation schedule (RAS). There was a 7-day washout period
Analgesic effects were assessed by means of an experimental human pain model based on the chemosomatosensory pain-related cortical potentials (CSSEPs) and pain-ratings after specific phasic nociceptive stimulation of the nasal mucosa with gaseous CO2. In addition, intensity estimates of tonic pain produced by stimulation of the nasal mucosa with dry air at controlled flow and temperature were employed.
Within the present pain model, the following were used as indicators of analgesia: • post-treatment decrease in pain-ratings and/or • post-treatment decrease in amplitudes of pain-related evoked potentials and/or • post-treatment increase in latencies of pain-related evoked potentials, relative to the pretreatment values.
1. Base-to-peak amplitudes P1, N1 and P2, peak-to-peak amplitudes P1 N1 and N1P2 of pain related evoked potentials 2. Latencies P1, N1 and P2 of pain-related evoked potentials 3. Intensity estimates of phasic (C02-) pain 4. Intensity estimates of tonic pain
In the first 20 minutes, 40 phasic CO2-stimuli were applied (20 stimuli at a concentration of 70% and 20 at a concentration of 60%, interstimulus interval 30 s). In response to these stimuli, pain-related potentials and subjective intensity estimates were recorded.
CO2-stimuli were mixed in a constantly flowing air stream with controlled temperature (36.5° C.) and humidity (80% relative humidity) presented to the left nostril (stimulus duration 200 ms, interstimulus interval 30 s). […] During intervals between phasic stimuli subjects performed a simple tracking task on a video screen. Using a joystick, they had to keep a small square inside a larger one that randomly moved around.
The EEG was recorded from 5 positions of the international 10/20 system (Cz, C3, C4, Fz and Pz; see FIG. 40) referenced to linked earlobes (A1+A2). Possible eye blink artifacts were monitored from an additional site (Fp2/A1+A2). Stimulus linked EEG segments of 2040 ms duration were sampled with a frequency of 250 Hz (band pass 0.2-30 Hz, pre-stimulus period 512 ms). The recorded analog EEG segments were then converted to digital and filed electronically. The average value for each recording position was separately calculated, discarding all eye blink contaminated records. By this procedure pain-related evoked potentials were obtained in response to the painful CO2 stimuli. Base to peak amplitudes P1, N1 and P2, the peak to peak amplitudes P1 N1 and N1 P2 and the latencies of P1, […] and P2 were measured. Wherever the time of measurement was used in the data analysis, the mid-time of a session was taken. FIG. 40 presents the components of the pain-related evoked potentials.

The mark [4] stands for this setting: 0.3 mg/kg oxycodone free-base i.v.

Broadly, the ED50 is the midpoint of the dose-response relation. Turning to `COc1ccc2c3c1O[C@H]1C(=O)CC[C@@]4(O)[C@@H](C2)N(C)CC[C@]314` [Oxycodone, oxycodone], in data set [1] (7-day oxycodone infusion […] vs vehicle pump), the “Rightward shift in the oxycodone dose-response curve (tolerance)” value is given as 8.5 fold. The ED50 in data set [1] (Rattus norvegicus, iv, i.v. oxycodone, vehicle-pump implanted rats, read-out: ED50 value (antinociception)) was found to be 0.32 mg/kg. The “% MPE on challenge with […] oxycodone” value in data set [1] (after s.c. oxycodone infusion […] for 7 days) is approximately 50 % MPE. For the same molecule, the “First test point at which antinociception was present” value in the data set with male Sprague-Dawley rats (setting [4]) is listed as 2.5 min. The “Obvious signs (sedation, motor control, respiration, toxicity)” value in the data set on male Sprague-Dawley rats (setting [4]) is reported as “no obvious signs were noted”. For the same molecule, in the data set on male Sprague-Dawley rats (setting [4]), the “Time antinociception stayed significantly above baseline latencies” value is 40 min. Moreover, the “Peak time of antinociception” value with male Sprague-Dawley rats (0.3 mg/kg oxycodone free-base i.v., 51° C. tail withdrawal) turned out to be 10 min. For the same molecule, the “ED80 value (antinociception)” value with male Sprague-Dawley rats (oxycodone free-base i.v., tested at 10-min) came to 0.41 mg/kg. For the same molecule, the figures for the “Discontinuations due to Diarrhea, n/N” value in data set [2] (daily oxycodone 40 mg), in data set [2] (daily oxycodone 60 mg) and in data set [2] (daily oxycodone 80 mg) were 0/17, 0/17 and 0/16, respectively. Further, the “Incidence of Discontinuations due to Diarrhea” value in data set [2] (daily oxycodone 40 mg), in data set [2] (daily oxycodone 60 mg) and in data set [2] (daily oxycodone 80 mg) was “(0.0%)” throughout. Moreover, the “Magnitude of reduction of amplitude P1N1 at C4 compared to baseline” value in data set [3] (60% CO2, 20 mg oxycodone) turned out to be 35.3%. In data set [3] (60% CO2, recording position C4), the “Amplitude P1N1 of pain-related evoked potentials” value is recorded as “significant compared to placebo”. Besides, the “Latency P1 of pain-related evoked potentials” value in data set [3] (60% CO2, recording position C4) is “significant compared to placebo”; in data set [3] (60% CO2, recording position Pz) it was “significant compared to placebo”; in data set [3] (70% CO2, recording position C3), “significant compared to placebo”; in data set [3] (70% CO2, recording position Cz) it was “significant compared to placebo”; in data set [3] (70% CO2, recording position Fz), “significant compared to placebo”; in data set [3] (70% CO2, recording position Pz) it was “significant compared to placebo”. The “Latency P2 of pain-related evoked potentials” value in data set [3] (70% CO2, recording position Cz) is given as “significant compared to placebo”; in data set [3] (70% CO2, recording position Pz) it was “significant compared to placebo”.
